Values of other authors in PMC8623851, “The Structural Determinants for α1-Adrenergic/Serotonin Receptors Activity among Phenylpiperazine-Hydantoin Derivatives” (Molecules, 2021).

What was measured:
[1] = target: human 5-HT7b receptor (Homo sapiens, UniProt P34969); set-up: expressed in transfected cells; host or cells: HEK-293; method as in PMID 31383628, PMID 29425815; conditions: previously reported arylpiperazine hydantoin derivatives; read-out: Ki 5-HT7; cited from earlier work
[2] = target: α1-receptor; set-up: method as in PMID 31383628, PMID 29425815; conditions: previously reported arylpiperazine hydantoin derivatives; cited from earlier work

human 5-HT7b receptor, sequence (P34969 1-432): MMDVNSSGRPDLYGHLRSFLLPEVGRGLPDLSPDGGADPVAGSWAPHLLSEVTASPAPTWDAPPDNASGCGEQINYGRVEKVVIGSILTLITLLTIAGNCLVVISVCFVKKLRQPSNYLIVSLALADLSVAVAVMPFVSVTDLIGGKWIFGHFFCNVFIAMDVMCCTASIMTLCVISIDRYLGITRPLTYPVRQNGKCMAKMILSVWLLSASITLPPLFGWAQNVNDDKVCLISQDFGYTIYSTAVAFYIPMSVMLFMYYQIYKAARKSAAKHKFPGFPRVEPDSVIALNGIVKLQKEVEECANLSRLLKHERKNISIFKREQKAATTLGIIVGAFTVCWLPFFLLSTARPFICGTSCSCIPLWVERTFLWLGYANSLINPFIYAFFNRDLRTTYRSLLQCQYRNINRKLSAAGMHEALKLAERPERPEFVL

COc1ccc(C2(C)NC(=O)N(CC(O)CN3CCN(c4ccccc4OC)CC3)C2=O)cc1 (centres unmarked) [Compound 3]
Ki [1]: 8 nM | Ki [2]: 530 nM
